According to patent US20050181376A1, “Antisense modulation of microsomal triglyceride transfer protein expression” (ISIS Pharmaceuticals, Inc., priority 2001, published 2005):
Strand notation (5' to 3'): a small letter for the sugar, then the base; units joined by * are phosphorothioate-linked, units joined directly phosphodiester-linked; [ ] holds rarer units or linkages, { } end groups; capitals alone tell only the bases. e = 2'-O-(2-methoxyethyl) (MOE); [5mC] = 5-methylcytosine; d = 2'-deoxy (DNA)

Tested on: human microsomal triglyceride transfer protein mRNA
Test: Antisense inhibition of human microsomal triglyceride transfer protein mRNA levels, quantitative real-time PCR; note: test concentration or dose not given here
Conditions: averages from two experiments

Row | Substance | % INHIB (inhibition of human microsomal triglyceride transfer protein mRNA levels)
1 | 144413 (eG*eA*eT*eT*e[5mC]*d[5mC]*dT*d[5mC]*d[5mC]*dA*dT*dA*dG*dT*dA*eA*eG*eG*e[5mC]*e[5mC]; antisense) [compound 144413] | 91%
2 | 144416 (eA*eG*eG*eT*eG*dG*dT*dG*dA*d[5mC]*dA*dG*dA*dT*dG*eT*eA*eG*e[5mC]*eT; antisense) [compound 144416] | 27%
3 | 144449 (eA*eT*eG*eT*eG*d[5mC]*d[5mC]*dT*dT*d[5mC]*dT*dA*d[5mC]*d[5mC]*dT*eT*eA*eA*eG*eG) [compound 144449] | 35%
4 | 144440 (eA*eA*eT*eA*eT*d[5mC]*dA*d[5mC]*dA*dG*dG*dT*d[5mC]*dA*dG*eT*eT*eT*e[5mC]*eA; antisense) [compound 144440] | 40%
5 | 144427 (eT*eA*eA*eG*eG*dT*d[5mC]*dT*dT*d[5mC]*dT*dT*d[5mC]*dA*d[5mC]*e[5mC]*eT*e[5mC]*eA*eT; antisense) [compound 144427] | 8%
6 | ATGTGCCTTCTACCTTAAGG (antisense eA*eT*eG*eT*eG*d[5mC]*d[5mC]*dT*dT*d[5mC]*dT*dA*d[5mC]*d[5mC]*dT*eT*eA*eA*eG*eG) [ISIS 144449] | at least 30%
7 | TCAACTGCATCCAGTGCCCA (antisense eT*e[5mC]*eA*eA*e[5mC]*dT*dG*d[5mC]*dA*dT*d[5mC]*d[5mC]*dA*dG*dT*eG*e[5mC]*e[5mC]*e[5mC]*eA) [ISIS 144408] | at least 30%
8 | 144415 (eG*eT*eG*eG*eT*dT*d[5mC]*d[5mC]*dA*dG*dA*dG*d[5mC]*dT*dT*eA*eA*e[5mC]*eT*eG; antisense) [compound 144415] | 0%
9 | CATGCCACATTGTGTCCCTT (antisense e[5mC]*eA*eT*eG*e[5mC]*d[5mC]*dA*d[5mC]*dA*dT*dT*dG*dT*dG*dT*e[5mC]*e[5mC]*e[5mC]*eT*eT) [ISIS 144441] | at least 30%
10 | 144447 (eG*eA*eG*e[5mC]*eT*dT*d[5mC]*dA*dT*dA*dT*dA*d[5mC]*dA*dT*eT*eG*eA*eT*e[5mC]; antisense) [compound 144447] | 70%
11 | CCCGTCATGCTTAAGGAAGT (antisense e[5mC]*e[5mC]*e[5mC]*eG*eT*d[5mC]*dA*dT*dG*d[5mC]*dT*dT*dA*dA*dG*eG*eA*eA*eG*eT) [ISIS 144448] | at least 30%
12 | GTACTGGTTTCCAGGCCAGC (antisense eG*eT*eA*e[5mC]*eT*dG*dG*dT*dT*dT*d[5mC]*d[5mC]*dA*dG*dG*e[5mC]*e[5mC]*eA*eG*e[5mC]) [ISIS 144437] | at least 30%
13 | 144430 (e[5mC]*eT*eA*eT*eG*dT*dA*dG*d[5mC]*d[5mC]*dA*dG*dT*dG*dT*eA*eG*eG*e[5mC]*eA; antisense) [compound 144430] | 0%
14 | AGTGTCCCAGTGATGATCAT (antisense eA*eG*eT*eG*eT*d[5mC]*d[5mC]*d[5mC]*dA*dG*dT*dG*dA*dT*dG*eA*eT*e[5mC]*eA*eT) [ISIS 144423] | at least 30%
15 | GAGCTTCATATACATTGATC (antisense eG*eA*eG*e[5mC]*eT*dT*d[5mC]*dA*dT*dA*dT*dA*d[5mC]*dA*dT*eT*eG*eA*eT*e[5mC]) [ISIS 144447] | at least 30%
16 | 144431 (e[5mC]*eG*eA*eG*eT*dA*dG*dA*dG*dA*dA*dT*dG*dT*d[5mC]*eT*eA*eG*eG*e[5mC]; antisense) [compound 144431] | 26%
17 | GCGGTAGCCCACGCTGTCTT (antisense eG*e[5mC]*eG*eG*eT*dA*dG*d[5mC]*d[5mC]*d[5mC]*dA*d[5mC]*dG*d[5mC]*dT*eG*eT*e[5mC]*eT*eT) [ISIS 144412] | at least 30%
18 | 144419 (eT*eG*eG*eT*eG*dG*dA*d[5mC]*d[5mC]*dG*d[5mC]*d[5mC]*dA*dG*dA*eG*e[5mC]*eT*e[5mC]*e[5mC]; antisense) [compound 144419] | 0%
19 | 144410 (e[5mC]*e[5mC]*eA*eG*eT*dT*dG*dT*dG*dT*dG*dA*d[5mC]*d[5mC]*dT*eT*eT*eA*eA*e[5mC]; antisense) [compound 144410] | 38%
20 | 144441 (e[5mC]*eA*eT*eG*e[5mC]*d[5mC]*dA*d[5mC]*dA*dT*dT*dG*dT*dG*dT*e[5mC]*e[5mC]*e[5mC]*eT*eT; antisense) [compound 144441] | 60%

Row | Substance | % INHIB (inhibition of human microsomal triglyceride transfer protein mRNA levels)
21 | 144428 (eG*e[5mC]*eA*eG*e[5mC]*dT*dG*d[5mC]*dA*dG*d[5mC]*dA*dG*dT*dG*e[5mC]*eG*e[5mC]*eA*e[5mC]; antisense) [compound 144428] | 19%
22 | CAGTGCCCAGCTAGGAGTCA (antisense e[5mC]*eA*eG*eT*eG*d[5mC]*d[5mC]*d[5mC]*dA*dG*d[5mC]*dT*dA*dG*dG*eA*eG*eT*e[5mC]*eA) [ISIS 144407] | at least 30%
23 | 144423 (eA*eG*eT*eG*eT*d[5mC]*d[5mC]*d[5mC]*dA*dG*dT*dG*dA*dT*dG*eA*eT*e[5mC]*eA*eT; antisense) [compound 144423] | 41%
24 | 144418 (eA*e[5mC]*eA*eG*eT*dG*dG*d[5mC]*dT*d[5mC]*dT*dG*dG*dA*dA*eG*eA*e[5mC]*e[5mC]*eT; antisense) [compound 144418] | 0%
25 | 144408 (eT*e[5mC]*eA*eA*e[5mC]*dT*dG*d[5mC]*dA*dT*d[5mC]*d[5mC]*dA*dG*dT*eG*e[5mC]*e[5mC]*e[5mC]*eA; antisense) [compound 144408] | 30%
26 | 144420 (eG*eA*eG*eG*eT*dG*dA*d[5mC]*dA*dG*d[5mC]*dA*dT*d[5mC]*d[5mC]*eA*e[5mC]*e[5mC]*eA*eG; antisense) [compound 144420] | 21%
27 | 144411 (eA*e[5mC]*eG*eT*eG*dA*dG*d[5mC]*dT*dT*dG*dT*dA*d[5mC]*dA*eG*e[5mC]*e[5mC]*eG*eG; antisense) [compound 144411] | 28%
28 | 144443 (eG*eT*eA*eG*e[5mC]*dA*dT*dA*d[5mC]*dT*dG*d[5mC]*dA*dT*dA*eT*eA*e[5mC]*e[5mC]*e[5mC]; antisense) [compound 144443] | 51%
29 | 144446 (eG*eA*eG*eA*eA*dT*dA*dA*d[5mC]*dT*dA*dT*dT*d[5mC]*dT*eG*eA*e[5mC]*eT*eG; antisense) [compound 144446] | 28%
30 | 144439 (e[5mC]*eG*e[5mC]*eT*eG*dG*dA*dA*dG*dT*dA*d[5mC]*dT*dA*dT*e[5mC]*e[5mC]*eG*eG*e[5mC]; antisense) [compound 144439] | 52%
31 | 144434 (e[5mC]*e[5mC]*e[5mC]*eT*eG*dG*dA*d[5mC]*d[5mC]*dT*d[5mC]*dT*dA*dT*dA*eT*eT*eG*eG*e[5mC]; antisense) [compound 144434] | 0%
32 | 144421 (eA*eT*eG*eG*e[5mC]*dT*dT*d[5mC]*dT*dA*dA*dT*dG*dA*dG*eT*e[5mC]*eT*eG*eA; antisense) [compound 144421] | 13%
33 | CGCTGGAAGTACTATCCGGC (antisense e[5mC]*eG*e[5mC]*eT*eG*dG*dA*dA*dG*dT*dA*d[5mC]*dT*dA*dT*e[5mC]*e[5mC]*eG*eG*e[5mC]) [ISIS 144439] | at least 30%
34 | 144432 (eT*eA*e[5mC]*e[5mC]*eG*dT*dG*dA*dA*dG*dA*d[5mC]*d[5mC]*dA*dG*e[5mC]*e[5mC]*eT*eT*e[5mC]; antisense) [compound 144432] | 0%
35 | 144426 (eG*eA*eG*e[5mC]*eA*dG*dT*dG*dG*dT*dA*dG*d[5mC]*d[5mC]*dA*eG*eG*eT*eG*eG; antisense) [compound 144426] | 22%
36 | 144436 (eG*eA*eG*eG*eA*dG*dT*d[5mC]*d[5mC]*dA*d[5mC]*dT*dG*dT*dG*eA*eT*eG*eT*e[5mC]; antisense) [compound 144436] | 29%
37 | GATTCCTCCATAGTAAGGCC (antisense eG*eA*eT*eT*e[5mC]*d[5mC]*dT*d[5mC]*d[5mC]*dA*dT*dA*dG*dT*dA*eA*eG*eG*e[5mC]*e[5mC]) [ISIS 144413] | at least 30%
38 | CCTGGAGGATAATGCTGCTG (antisense e[5mC]*e[5mC]*eT*eG*eG*dA*dG*dG*dA*dT*dA*dA*dT*dG*d[5mC]*eT*eG*e[5mC]*eT*eG) [ISIS 144422] | at least 30%
39 | 144417 (eG*e[5mC]*eT*eG*e[5mC]*dA*dG*d[5mC]*d[5mC]*dT*dG*d[5mC]*dT*dT*dT*e[5mC]*e[5mC]*eA*eG*eA; antisense) [compound 144417] | 9%
40 | AATATCACAGGTCAGTTTCA (antisense eA*eA*eT*eA*eT*d[5mC]*dA*d[5mC]*dA*dG*dG*dT*d[5mC]*dA*dG*eT*eT*eT*e[5mC]*eA) [ISIS 144440] | at least 30%
